Columns and labels:
A549 = type: cell-based; conditions: 48 hour incubation, unit not given (tested from 100 μM); for GI50: read-out: GI50 (dose inhibiting 50% cell growth); for CC50: read-out: LC50 (dose killing 50% of initially seeded cells)
Method: (§1) Anticancer activity tests were made on colon (HCT116, HT29, HCT15), lung (A549, H460) and ovarian (OVCARS, OVCAR3, NCI-ADRRES) cancer cell lines in vitro. All cell lines were obtained from American Type Culture Collection (Manassas, Va., USA) or American National Cancer Institute (NCl, USA). All cell lines were grown in RPMI1640 medium supplemented with 25 mM HEPES, 2 mM L-Glutamine, 5-10% fetal calf serum and antibiotics at 37° C. in a humidified 5% CO2 atmosphere.
(§2) The effect of the aforementioned compound on the selected cell lines indicated above was tested with Sulforhodamine B (SRB) assay that is also used by American National Cancer Institute. 100 μL of cancer cells were seeded at densities between 5.000-40.000 per well of a 96 well plate. The cells were incubated for 24 h for adaptation. […] The tested complex was dissolved in DMSO at 100 μM initial concentration and diluted to obtain 10 different concentrations as 1:2, 1:4 or 1:10. Every different concentration was analyzed in triplicates and in two independent experiments. The cells were fixed with 50% (w/v) ice-cold TCA in situ after 48 hour incubation. SRB dye bound to the cells was dissolved by unbuffered 10 mM Tris solution and absorbance values were measured at 530 nm in an ELISA microplate reader. Percentages for cell growth that were calculated from absorbance measurements (initial: TZ, control: C, complex at different concentrations: Ti) are as described below:
(§3) Gl50 (dose inhibiting 50% cell growth)=[Ti−Tz)/(C-Tz)]×100=50
(§4) TGI (total growth inhibition): Ti=Tz
(§5) LC50 (dose killing 50% of initially seeded cells)=[(Ti−Tz)/Tz]×100=−50

OVCAR5 = type: cell-based; conditions: 48 hour incubation, unit not given (tested from 100 μM); for GI50: read-out: GI50 (dose inhibiting 50% cell growth); for CC50: read-out: LC50 (dose killing 50% of initially seeded cells)
Method: as §1, §2, §3, §4, §5

HCT116 = type: cell-based; conditions: for TGI (total growth inhibition) / GI50 / CC50: 48 hour incubation, unit not given (tested from 100 μM); for GI50: read-out: GI50 (dose inhibiting 50% cell growth); for CC50: read-out: LC50 (dose killing 50% of initially seeded cells)
Method: as §1, §2, §3, §4, §5

HCT15 = type: cell-based; conditions: for TGI (total growth inhibition) / GI50 / CC50: 48 hour incubation, unit not given (tested from 100 μM); for GI50: read-out: GI50 (dose inhibiting 50% cell growth); for CC50: read-out: LC50 (dose killing 50% of initially seeded cells)
Method: as §1, §2, §3, §4, §5

NCI-ADRRES = type: cell-based; conditions: 48 hour incubation, unit not given (tested from 100 μM); for GI50: read-out: GI50 (dose inhibiting 50% cell growth); for CC50: read-out: LC50 (dose killing 50% of initially seeded cells)
Method: as §1, §2, §3, §4, §5

HT29 = type: cell-based; conditions: for TGI (total growth inhibition) / GI50 / CC50: 48 hour incubation, unit not given (tested from 100 μM); for GI50: read-out: GI50 (dose inhibiting 50% cell growth); for CC50: read-out: LC50 (dose killing 50% of initially seeded cells)
Method: as §1, §2, §3, §4, §5

H460 = type: cell-based; conditions: 48 hour incubation, unit not given (tested from 100 μM); for GI50: read-out: GI50 (dose inhibiting 50% cell growth); for CC50: read-out: LC50 (dose killing 50% of initially seeded cells)
Method: as §1, §2, §3, §4, §5

OVCAR3 = type: cell-based; conditions: 48 hour incubation, unit not given (tested from 100 μM); for GI50: read-out: GI50 (dose inhibiting 50% cell growth)
Method: as §1, §2, §3, §4, §5

HCT116 cancer cells = assay: HCT116 xenograft study in NOD/SCID mice; type: in vivo; set-up: key to tumor size: tumor volume in mm^3, (a×b²)/2 from caliper length and width; conditions: for tumor size / ΔT/ΔC % value: HCT116 xenograft, complex 40 mg/kg, oxaliplatin 5 mg/kg; for tumor size: no unit in table (method gives tumor volume in mm^3); for ΔT/ΔC % value: day 22, highly active compounds have values less than 42%
Method: Xenograft studies were made by using HCT116 colon cancer cell lines after observing that the subject of the invention, palladium(II) complex, is especially effective on colon cancer cells. […] To obtain the xenografts, approximately 10^6 cells from exponentially growing HCT116 cells were intradermally injected in the axillae of 6-8 weeks old NOD/SCID mice by using the English double sided trocar implantation method. Two separate injections were made to each mouse. Two tumor inocula were added to each mouse in order to produce one tumor load for each mouse. […] These positive effects are the beneficial aspects of the English system.
Treatment was started in randomly chosen animal groups when the tumor volume reached 100-200 mm^3. […] The treatment was performed in 5 days of application and 2 days of resting periods. Tumor volume was calculated from [(axb^2)/2] formula. In this formula, a and b are tumor length and width which are measured by vernier caliper. Measurements were repeated twice weekly. Treated animals received a single dose from the drugs. Apart from tumor volume, ΔT/ΔC % values were calculated from ΔT═T−D0 and ΔC═C−D0 equations. D0 is the mean tumor volume at the beginning of the treatment, T is the mean tumor volume of treated mice and C is the mean tumor volume of untreated (not injected with complex) mice which is used as a control. […] Weight loss, neurological disorders and changes in diet were recorded as indication of toxicity (side effects). The experiments were terminated when the tumor volume reached approximately to 1000-1500 mm^3.

A549 cells = conditions: cited from earlier work
[1] = Day 19 (value equal in all groups, start of treatment)
[2] = versus cisplatin, oxaliplatin and carboplatin

Row | Compound | TGI (total growth inhibition) (A549) | GI50 (A549) [µM] | CC50 (A549) [µM] | TGI (total growth inhibition) (OVCAR5) | GI50 (OVCAR5) [µM] | CC50 (OVCAR5) [µM] | TGI (total growth inhibition) (HCT116) | GI50 (HCT116) [µM] | CC50 (HCT116) [µM] | TGI (total growth inhibition) (HCT15) | GI50 (HCT15) [µM] | CC50 (HCT15) [µM] | TGI (total growth inhibition) (NCI-ADRRES) | GI50 (NCI-ADRRES) [µM] | TGI (total growth inhibition) (HT29) | GI50 (HT29) [µM] | TGI (total growth inhibition) (H460) | GI50 (H460) [µM] | TGI (total growth inhibition) (OVCAR3) | GI50 (OVCAR3) [µM] | other results
1 | N.N.O=C([O-])C1(C(=O)[O-])CCC1.[Pt+2] [Carboplatin, carboplatin] | >100 | > 100 | > 100 | >100 | > 100 | > 100 | >100 | > 100 | > 100 | >100 | > 100 | > 100 | >100 | > 100 | >100 | > 100 | >100 | > 100 | >100 | > 100 | CC50 (NCI-ADRRES): > 100 µM; CC50 (HT29): > 100 µM; CC50 (H460): > 100 µM
2 | N.N.[Cl][Pt][Cl] [Cisplatin, cisplatin] | 55.1 | 6.6 | – | >100 | 57.8 | – | 90.2 | 24.8 | – | 85.9 | 57.3 | – | >100 | 9.9 | 92.0 | 29.8 | 50.3 | 8.9 | >100 | 34.3 | –
3 | O=C1[O][Pt]2([NH][C@@H]3CCCC[C@H]3[NH]2)[O]C1=O [Oxaliplatin, oxaliplatin] | 58.2 | 4.4 | – | >100 | 50.7 | – | 64.1 | 0.9 | – | 17.2 | 6 | – | >100 | 24.8 | 56.5 | 6.3 | 95.6 | 6.8 | >100 | 9.1 | tumor size (HCT116 cancer cells; [1]): 245.96; tumor size (HCT116 cancer cells; Day 22): 361.82 ± 153.96; tumor size (HCT116 cancer cells; Day 26): 538.00 ± 203.51; tumor size (HCT116 cancer cells; Day 29): 622.29 ± 152.76; tumor size (HCT116 cancer cells; Day 33): 847.06 ± 176.45; ΔT/ΔC % value (HCT116 cancer cells): +70.60%
4 | CCC1(CC)C(=O)NC(=O)[N]([Pd-2]23[n+]4ccccc4C[NH+]2Cc2cccc[n+]23)C1=O.O.[Cl-] [[Pd(bpma)(barb)]Cl•H2O, [Pd(bpma)(barb)]Cl·H2O] | 80.1 | 43.1 | > 100 | 63.5 | 40 | 87 | 9.1 | 4.9 | 82.4 | 9.9 | 6.8 | 89.1 | 10.0 | 5.6 | 6.6 | 3 | 75.9 | 44.4 | 25.2 | 6.5 | tumor size (HCT116 cancer cells; [1]): 245.96; tumor size (HCT116 cancer cells; Day 22): 195.61 ± 151.45; tumor size (HCT116 cancer cells; Day 26): 373.88 ± 157.42; tumor size (HCT116 cancer cells; Day 29): 577.38 ± 157.37; tumor size (HCT116 cancer cells; Day 33): 782.22 ± 228.55; decrease of tumor volume compared to oxaliplatin (HCT116 cancer cells; all time points of measurement, complex 40 mg/kg vs oxaliplatin 5 mg/kg): decreased the tumor volume more effectively than oxaliplatin in all time points of measurement; ΔT/ΔC % value (HCT116 cancer cells): −29.88%; cytotoxic effect compared to anticancer drugs (HCT116; [2]): selectively effective; cytotoxic effect compared to anticancer drugs (HCT15; [2]): selectively effective; CC50 (NCI-ADRRES): > 100 µM; CC50 (HT29): 22 µM; cytotoxic effect compared to anticancer drugs (HT29; [2]): selectively effective; CC50 (H460): > 100 µM
5 | O.O.O=C1[N-]S(=O)(=O)c2ccccc21.[Cl][Pd-2]12[n+]3ccccc3C[NH+]1Cc1cccc[n+]12 [[Pd(bpma)Cl](sac)·2H2O] | – | – | – | – | – | – | – | – | – | – | – | – | – | – | – | – | – | – | – | – | cytotoxic effect (A549 cells): showed a cytotoxic effect on A549 cells, similar to cisplatin
